Assay results from US11061017B2, “High throughput and functional screening method for muscle related disorders and biological processes” (CYTOO, priority 2015, dated 2021).

Assays:
[1] = tested on: myotubes differentiated from healthy donors; experiment: Calcium release assay in myotubes (Fluo-4 time-lapse), inducers; type: cell-based, human; conditions: acetylcholine 20 μM, caffeine 10 mM, IGF-1 37 nM, 30 seconds time-lapse
Protocol: (§1) As myotube shortening can also take origin from compound toxicity, physiological cues of myotube contraction need to be validated. Hit validation is performed using a secondary assay estimating the level of calcium release to myotube cytoplasm. Myotubes differentiated from donors are cultured during 5 days and stained with a calcium sensitive florescent probe Fluo-4 (2 μM) in a dedicated buffer (145 mM NaCl, 5 mM KCl, 1 mM CaCl2, 1 mM MgCl2, 5.6 mM glucose, 10 mM Hepes, pH 7.4). A single compound is added to cultured myotubes and a time-lapse acquisition is performed during 30 seconds (Eclipse-Ti, Nikon), by taking a picture each second, to follow the increase in fluorescence intensity of the probe due to calcium entry into the cytoplasm. After fluorescence background removal, a relative fluorescence intensity is calculated in the whole myotubes for each timepoint, normalizing to the first value set up at 100%.

[2] = tested on: myotubes differentiated from healthy donors; experiment: Morphology assay (myotube area and nuclei count, dose response); type: cell-based, human; conditions: 96 hours, compared to untreated control
Protocol: (§2) Human primary myoblasts (HSMM, Lonza), from a healthy donor, are cultured on fibronectin coated surfaces within growth medium (Lonza SkGM™-2 cell culture Kit) during 24 hours. Then cells are cultured within differentiation medium (DMEM/F12, 2% Horse Serum, 0.5% P/S) for 24 hours. Compounds are added to the forming myotubes during 96 hours. Cells are fixed and an immunostaining is realized against troponin T and nuclei. Images are acquired using an Operetta high content imaging system (PerkinElmer).
In order to characterize compounds mode of action on the myotube model (including myoblasts differentiation, myotube maturation, myotube hypertrophy, myotube atrophy, or cell viability), automated image segmentation and analysis methods has been developed by the inventors using the Acapella software library (PerkinElmer).
First, customized segmentations of myotubes and nuclei are performed.
Second, objects are analyzed to extract basic parameters such as myotube count, nuclei count, myotube morphology (including their length, width, area, and orientation), fusion index (through the percentage nuclei within myotubes). Taking said parameters into account, aberrant myotubes are removed.

[3] = tested on: myotubes from a healthy donor with chemically induced atrophy; experiment: Atrophy induction and atrophy rescue assay (muscle disuse or wasting model); type: cell-based, human; conditions: for reduction of myotube area (atrophy induction) / rescue of atrophy induced by dexamethasone: dexamethasone 100 μM; for reduction of myotube area (atrophy induction) / rescue of atrophy induced by myostatin: myostatin 4.8 nM; for reduction of myotube area (atrophy induction) / rescue of atrophy induced by IL1-β: IL1-β 1.16 nM; for reduction of myotube area (atrophy induction) / rescue of atrophy induced by TNF-α: TNF-α 115 pM; for reduction of myotube area (atrophy induction): 96 hours; for rescue of atrophy induced by IL1-β / rescue of atrophy induced by TNF-α / rescue of atrophy induced by dexamethasone / rescue of atrophy induced by myostatin: IGF-1 18.75 nM, trichostatin A 300 nM
Source text: Another possible application is to mimic muscle wasting disorders (cachexia, sarcopenia) by chemically inducing atrophy on myotubes from healthy donors and then to screen compounds potentially rescuing the atrophic phenotype. As patients suffering from a large decrease in muscle mass, primary myoblast samples or myofibers can't be collected for ethical reasons and artificial in vitro strategies are necessary. Nonetheless, signaling pathways impacted in cachexia and sarcopenia are well described in the literature implicating three major cascades: glucocorticoid, Smad2/3 and the NF-κB pathway. Molecules known to reproduce these molecular mechanisms can therefore be used to simulate pathological myotubes. For example, glucocorticoid pathway can be mimicked by dexamethasone treatment, Smad2/3 pathway by myostatin and TGF-β treatments, and NF-κB pathway by IL1-β and TNF-α treatments.
as §2, with “To do so, human” for “Human”, “Candidates with potential rescue effect” for “Compounds”, “myotubes 15 minutes before the atrophic inducer. Then myotubes are cultured” for “myotubes”, “(PerkinElmer). Automated image processing has been developed by the inventors using the Acapella software library (PerkinElmer).” for “(PerkinElmer).”

myotubes from DMD donors = experiment: DMD myotube morphology rescue assay; type: cell-based, human; conditions: for increase of fusion index in DMD myotubes / increase of tube number in DMD myotubes: prednisone 500 nM, deflazacort 50 nM
Protocol: Using previously described protocol, human primary myoblasts, are cultured on fibronectin coated surfaces within growth medium during 24 hours. Then cells are cultured within differentiation medium (DMEM/F12, 2% Horse Serum, 0.5% P/S) for 24 hours. Therapeutic drug candidates are added and myotubes are then cultured during 96 hours. Cells are fixed and an immunostaining is realized against troponin T and nuclei. Images are acquired using an Operetta high content imaging system (PerkinElmer). Automated image processing was been developed by the inventors using the Acapella software library (PerkinElmer).

[4] = tested on: myotubes differentiated from myoblasts of healthy donors; experiment: Glucose metabolism assay (Glucose Uptake Colorimetric Assay Kit); type: cell-based, human
Protocol: (§3) Human primary myoblasts from a healthy or a type I diabetic donor, are cultured on fibronectin coated surfaces within growth medium during 24 hours. Then cells are cultured within differentiation medium (DMEM/F12, 2% Horse Serum, 0.5% P/S) for 24 hours. Therapeutic drug candidates are added and myotubes are then cultured during 96 hours. Compound effect on glucose metabolism is performed by using the indications provided by the manufacturer (Glucose Uptake Colorimetric Assay Kit, Sigma).

[5] = tested on: myotubes from healthy donor; experiment: Inhibition of calcium release after acetylcholine or 4-chloro-m-cresol induction (Fluo-4); type: cell-based, human; conditions: tubocurarine 100 μM, succinylcholine 25 μM; for decrease of relative fluorescence intensity after acetylcholine induction: acetylcholine 20 μM induction, inhibitor added 15 minutes before, verapamil, nifedipine, nicardipine 40 μM; for effect on 4-chloro-m-cresol induction of calcium release: 4-chloro-m-cresol 400 μM induction
Protocol: as §1
Myoblasts are differentiated during 5 days in culture, then potential inhibitors are added in calcium buffer 15 minutes before an acethycholine treatment. […] Moreover mode of action characterization can be optimized by comparing a compound effect on both acethycholine and 4-chloro-m-cresol inductions. […] Even if a time-lapse method is described here using a classical widefield microscope, this embodiment of the invention is fully compatible with kinetic plate readers systems allowing automated calcium flow measurements, including the Hamamatsu FDSS.

[6] = tested on: myotubes differentiated from healthy donors (human primary myoblasts HSMM, Lonza); experiment: Myotube shortening assay (contraction induction, troponin T immunostaining, image analysis); type: cell-based; conditions: 4-chloro-m-cresol 1.5 mM, 3 minutes
Protocol: Human primary myoblasts (HSMM, Lonza) are cultured on fibronectin coated surfaces within growth medium (Lonza SkGM™-2 cell culture Kit) during 24 hours. Then cells are cultured within differentiation medium (DMEM/F12, 2% Horse Serum, 0.5% P/S) for 5 days. Compounds (4-chloro-m-cresol, 1.5 mM) are added to myotubes during 3 minutes. Cells are fixed and an immunostaining is realized against troponin T and nuclei. Images are acquired using an Operetta high content imaging system (PerkinElmer). Automated image segmentation and analysis methods has been developed by the inventors using the Acapella software library (PerkinElmer). Then, objects are analyzed to extract basic parameters such as myotube count, nuclei count, myotube morphology (including their length, width, area), fusion index (through the percentage nuclei embedded within myotubes). However, the main descriptor of myotube shortening is the quantification of the number of spots, which are objects obtained due to myotube detachment from the culture device and subsequent folding of at least one extremity of the myotube on itself (FIG. 2B, right). Taking said parameters into account, aberrant myotubes are removed. An advanced descriptor is additionally measured, as the number of myotubes encompassing a length lower than 470 μm. […] As myotubes treatment with 4-chloro-m-cresol induces 25% decrease in tube area, and 50% increase in staining intensity readouts, the use of spot number quantification largely increases the assay window (1000%) with a reduced variability, ensuring a full compatibility of the assay with compounds screening (Z′-factors higher than 0.7).

[7] = tested on: myotubes from healthy and type I diabetes donors; experiment: Morphology of myotubes from healthy and type I diabetes donors; type: cell-based, human; conditions: insulin 10 μM
Protocol: as §3
FIG. 10 is a quantification of some relevant morphological parameters, as tube number, fusion index, tube area tube width, of myotubes from healthy and type I diabetes donors, cultured in control and insulin (10 μM) conditions according to the invention. […] This illustrates the specificity of metabolisms assays on compounds detection and the complementarity of the approaches to detect new drugs rescuing specifically metabolic disorders.

## CC(=O)OCC[N+](C)(C)C [acethylcholine, acetylcholine]
[1]
  increase of relative fluorescence intensity (calcium release) compared to steady state level: 305%

## myostatin: atrophic reference compound, Smad2/3 pathway
[2]
  effect on nuclei count: decrease in nuclei count
[3]
  reduction of myotube area (atrophy induction): 30%

## C[C@]12C=CC(=O)C=C1CC[C@@H]1[C@@H]2C(=O)C[C@@]2(C)[C@H]1CC[C@]2(O)C(=O)CO [Prednisone, prednisone]
Myotubes from DMD donors
  increase of fusion index in DMD myotubes: 28%
  increase of tube number in DMD myotubes: 20%

## CC(=O)OCC(=O)[C@@]12N=C(C)O[C@@H]1C[C@H]1[C@@H]3CCC4=CC(=O)C=C[C@]4(C)[C@H]3[C@@H](O)C[C@@]12C [deflazacort]
Myotubes from DMD donors
  increase of fusion index in DMD myotubes: 59%
  increase of tube number in DMD myotubes: 54%

## TNF-α
[3]
  reduction of myotube area (atrophy induction): 55%

## TGF-β: atrophic reference compound, Smad2/3 pathway
[2]
  effect on myotube area: atrophic
  effect on nuclei count: without nuclei count alteration

## Cn1c(=O)c2c(ncn2C)n(C)c1=O [caffeine]
[1]
  increase of relative fluorescence intensity (calcium release) compared to steady state level: 55%

## IGF-1: hypertrophic reference compound
[2]
  effect on myotube area: hypertrophic
  effect on nuclei count: without nuclei count alteration
Myotubes from DMD donors; IGF-1 37 nM, 96 hours
  rescue of fusion index in DMD myotubes: 204%
  rescue of myotube width in DMD myotubes: 15%
  rescue of tube number in DMD myotubes: 109%
[1]
  increase of relative fluorescence intensity (calcium release) compared to steady state level: 20%
[4]; IGF-1 37 nM
  effect on glucose uptake: no effect
[3]
  rescue of atrophy induced by IL1-β: 85%
  rescue of atrophy induced by TNF-α: 89%
  rescue of atrophy induced by dexamethasone: 275%
  rescue of atrophy induced by myostatin: 71%

## COC(=O)C1=C(C)NC(C)=C(C(=O)OCCN(C)Cc2ccccc2)C1c1cccc([N+](=O)[O-])c1 (stereo not drawn) [nicardipine]
[5]
  decrease of relative fluorescence intensity after acetylcholine induction: 91%

## C[N+](C)(C)CCOC(=O)CCC(=O)OCC[N+](C)(C)C [succinylcholine]
[5]
  effect on 4-chloro-m-cresol induction of calcium release: −30%
  decrease of relative fluorescence intensity after acetylcholine induction: 94%

## COc1cc2c3cc1Oc1cc(ccc1O)C[C@@H]1c4c(cc(OC)c(O)c4Oc4ccc(cc4)C[C@@H]3N(C)CC2)CC[N+]1(C)C [Tubocurarine, tubocurarine]
[5]
  effect on 4-chloro-m-cresol induction of calcium release: 0%
  decrease of relative fluorescence intensity after acetylcholine induction: 96%

## Cc1cc(O)ccc1Cl [4-chloro-m-cresol]
[6]
  spot number quantification, assay window: 1000%
[6]; myotubes cultured 5 days
  decrease in tube area: 25%
[6]; troponin T staining
  increase in staining intensity: 50%

## C[C@@H]1C[C@H]2[C@@H]3CCC4=CC(=O)C=C[C@]4(C)[C@@]3(F)[C@@H](O)C[C@]2(C)[C@@]1(O)C(=O)CO [dexamethasone]
[3]
  reduction of myotube area (atrophy induction): 60%

## Insulin
[7]
  effect on myotube morphology (tube number, fusion index, tube area, tube width): does not modify myotube morphology
[4]; insulin 10 μM
  increase of glucose metabolism: 67%

## CC(/C=C/C(=O)NO)=C\[C@@H](C)C(=O)c1ccc(N(C)C)cc1 [trichostatin A]
[2]
  effect on myotube area: atrophy/hypertrophy biphasic effects
[3]
  rescue of atrophy induced by IL1-β: 54%
  rescue of atrophy induced by TNF-α: 100%
  rescue of atrophy induced by dexamethasone: 175%
  rescue of atrophy induced by myostatin: 71%

## IL1-β: atrophy inducer, NF-κB pathway
[3]
  reduction of myotube area (atrophy induction): 35%
